From patent US20250313563A1, “GLYCOGEN SYNTHASE KINASE 3 INHIBITORS AND USES THEREOF” (The Broad Institute, Inc., priority 2022, published 2025)
Read-outs that look alike come from different tables or passages of the source.

Assays:
[1] = molecular target: GSK3α (GST-full length GSK3α) (Homo sapiens (Human), UniProt P49840); test: GSK3α TR-FRET kinase assay; assay type: biochemical
Procedure, shortened: (§1)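 IC50 came from the normalized 665/615 nm TR-FRET ratio plotted against log compound concentration. The Tb-labelled pSer641 antibody and streptavidin-d2 detected phosphorylation of biotinylated S645-primed glycogen synthase peptide (200 nM) by 1 nM full-length GST-kinase. ATP was 4 μM for α, 2 μM for β, or 1 mM.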

[2] = molecular target: GSK3b (GST-full length GSK3b) (Homo sapiens (Human), UniProt P49841); test: GSK3b TR-FRET kinase assay; assay type: biochemical
Procedure, shortened: as §1

[3] = 1 nM GSK3α, 4 μM ATP, 30 minute preincubation, Table 16, read-out: GSK3-A TR-FRET BIOCHEMICAL (TR-FRET), IC50
[4] = 1 nM GSK3b, 2 μM ATP, 30 minute preincubation, Table 16, read-out: GSK3-B TR-FRET BIOCHEMICAL (TR-FRET), IC50
[5] = 1 nM GSK3α, 4 μM ATP, 30 minute preincubation, Table 16, read-out: GSK3-A TR-FRET BIOCHEMICAL (TR-FRET)
[6] = 1 nM GSK3b, 2 μM ATP, 30 minute preincubation, Table 16, read-out: GSK3-B TR-FRET BIOCHEMICAL (TR-FRET)
[7] = 1 nM GSK3α, 4 μM ATP, 30 minute preincubation, read-out: GSK3-A TR-FRET BIOCHEMICAL (TR-FRET), IC50
[8] = 1 nM GSK3b, 2 μM ATP, 30 minute preincubation, read-out: GSK3-B TR-FRET BIOCHEMICAL (TR-FRET), IC50

Chain of GSK3α (GST-full length GSK3α) (P49840 whole entry): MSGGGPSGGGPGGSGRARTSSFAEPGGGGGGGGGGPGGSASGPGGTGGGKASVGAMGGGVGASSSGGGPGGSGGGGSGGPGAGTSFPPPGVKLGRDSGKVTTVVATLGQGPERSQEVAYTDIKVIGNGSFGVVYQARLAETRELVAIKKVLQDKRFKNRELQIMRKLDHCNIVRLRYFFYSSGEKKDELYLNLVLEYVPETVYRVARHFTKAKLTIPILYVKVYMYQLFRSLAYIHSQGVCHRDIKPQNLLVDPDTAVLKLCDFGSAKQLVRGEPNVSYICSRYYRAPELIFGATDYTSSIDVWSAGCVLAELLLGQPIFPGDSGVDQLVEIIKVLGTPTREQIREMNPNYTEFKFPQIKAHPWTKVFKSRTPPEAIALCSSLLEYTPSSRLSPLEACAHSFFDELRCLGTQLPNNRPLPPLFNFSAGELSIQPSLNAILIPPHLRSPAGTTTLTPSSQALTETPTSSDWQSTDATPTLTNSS
Chain of GSK3b (GST-full length GSK3b) (P49841 whole entry): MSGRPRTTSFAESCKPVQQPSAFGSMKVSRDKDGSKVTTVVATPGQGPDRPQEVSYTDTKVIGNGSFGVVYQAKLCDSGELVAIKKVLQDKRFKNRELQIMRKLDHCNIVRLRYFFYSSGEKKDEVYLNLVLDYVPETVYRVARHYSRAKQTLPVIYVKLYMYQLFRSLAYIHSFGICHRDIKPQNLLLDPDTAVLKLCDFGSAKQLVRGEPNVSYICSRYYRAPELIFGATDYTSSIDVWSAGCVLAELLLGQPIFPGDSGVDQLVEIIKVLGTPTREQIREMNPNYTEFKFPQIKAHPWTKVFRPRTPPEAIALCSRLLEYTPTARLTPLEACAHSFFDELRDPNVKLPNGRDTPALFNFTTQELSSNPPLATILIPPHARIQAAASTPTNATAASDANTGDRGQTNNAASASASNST

| Compound | IC50 [1, 3] | IC50 [2, 4] | IC50 [1, 5] | IC50 [2, 6] | other results |
| --- | --- | --- | --- | --- | --- |
| CCC1(c2cccc(-c3ccnc(C)c3F)c2)C2=C(CC(C)(C)CC2=O)Nc2n[nH]cc21 (stereo not drawn) [Compound 918281] | ≤ 0.1 µM | 0.1 to 1 µM | – | – | – |
| CC1(C)CC2=C(C(=O)[C@H]1F)[C@]1(CC[C@H](C(F)(F)F)CC1)c1c[nH]nc1N2 [Compound 918282] | – | – | ≤ 0.1 µM | ≤ 0.1 µM | – |
| CC1(C)CC2=C(C(=O)[C@@H]1F)[C@]1(CC[C@H](C(F)(F)F)CC1)c1c[nH]nc1N2 [Compound 918283] | – | – | ≤ 0.1 µM | ≤ 0.1 µM | – |
| CC1(C)CC(=O)C2=C(Nc3n[nH]cc3[C@]23CC[C@@H](C(F)(F)F)CC3)[C@@H]1F [Compound 918284] | – | – | ≤ 0.1 µM | ≤ 0.1 µM | – |
| CC1(C)CC(=O)C2=C(Nc3n[nH]cc3[C@]23CC[C@@H](C(F)(F)F)CC3)[C@H]1F [Compound 918285] | – | – | ≤ 0.1 µM | 0.1 to 1 µM | IC50 ([1]; GSK3-A (TR-FRET 1 mM ATP), GMean, IC50, 1 mM ATP, geometric mean): 1 to 5 µM; IC50 ([2]; GSK3-B (TR-FRET 1 mM ATP), GMean, IC50, 1 mM ATP, geometric mean): > 5 µM |
| C[C@@H]1C[C@]2(CCN1S(C)(=O)=O)C1=C(CC(C)(C)CC1=O)Nc1n[nH]cc12 [Compound 918315] | – | – | 0.1 to 1 µM | 0.1 to 1 µM | – |
| C[C@@H]1C[C@@]2(CCN1S(C)(=O)=O)C1=C(CC(C)(C)CC1=O)Nc1n[nH]cc12 [Compound 918316] | – | – | ≤ 0.1 µM | 0.1 to 1 µM | – |
| CCC1(c2cccc(N3CCCC3C)c2)C2=C(CC(C)(C)CC2=O)Nc2n[nH]cc21 (stereo not drawn) [Compound 918321] | ≤ 0.1 µM | ≤ 0.1 µM | – | – | – |
| CC[C@]1(c2cccc(N3CCC[C@H]3C)c2)C2=C(CC(C)(C)CC2=O)Nc2n[nH]cc21 [Compound 918322] | > 5 µM | > 5 µM | – | – | – |
| CCC1(c2cccc(N3CC(C)C(C)C3)c2)C2=C(CC(C)(C)CC2=O)Nc2n[nH]cc21 (stereo not drawn) [Compound 918326] | 0.1 to 1 µM | 0.1 to 1 µM | – | – | – |
| CCC1(c2cccc(N3CC(C)C(C)C3)c2)C2=C(CC(C)(C)CC2=O)Nc2n[nH]cc21 (stereo not drawn) [Compound 918327] | 1 to 5 µM | > 5 µM | – | – | – |
| CCN(c1cccc(C2(CC)C3=C(CC(C)(C)CC3=O)Nc3n[nH]cc32)c1)c1ncccn1 (stereo not drawn) [Compound 919840] | ≤ 0.1 µM | ≤ 0.1 µM | – | – | – |
| CC1(C)CC(=O)C2=C(C1)Nc1n[nH]cc1[C@]21CCOC(C)(C)C1 [Compound 924298] | 1 to 5 µM | 1 to 5 µM | – | – | – |
| CC1(C)CC(=O)C2=C(C1)Nc1n[nH]cc1[C@@]21CCOC(C)(C)C1 [Compound 924299] | – | – | 0.1 to 1 µM | 0.1 to 1 µM | – |
| CC1(C)CC(=O)C2=C(C1)Nc1n[nH]cc1[C@@]21CCOC2(CCOCC2)C1 [Compound 924306] | – | – | – | – | IC50 [1, 7]: 0.1 to 1 µM; IC50 [2, 8]: 0.1 to 1 µM |
| C[C@H]1C[C@]2(CCO1)C1=C(CC(C)(C)CC1=O)Nc1n[nH]cc12 [Compound 924307] | – | – | 0.1 to 1 µM | 0.1 to 1 µM | – |
| C[C@@H]1C[C@@]2(CCO1)C1=C(CC(C)(C)CC1=O)Nc1n[nH]cc12 [Compound 924308] | – | – | 0.1 to 1 µM | 0.1 to 1 µM | – |
| C[C@H]1COCC[C@@]12C1=C(CC(C)(C)CC1=O)Nc1n[nH]cc12 [Compound 924309] | 1 to 5 µM | > 5 µM | – | – | – |
| C[C@@H]1COCC[C@]12C1=C(CC(C)(C)CC1=O)Nc1n[nH]cc12 [Compound 924310] | > 5 µM | > 5 µM | – | – | – |
| CC[C@H]1C[C@]2(CCO1)C1=C(CC(C)(C)CC1=O)Nc1n[nH]cc12 [Compound 924311] | 0.1 to 1 µM | 1 to 5 µM | – | – | – |
| CCC1(c2cccc(N3CC(C)C(C)C3)c2)C2=C(CC(C)(C)CC2=O)Nc2n[nH]cc21 (stereo not drawn) [Compound 924504] | 0.1 to 1 µM | 0.1 to 1 µM | – | – | – |
| CC[C@]1(c2cccc(N3C[C@H](C)[C@@H](C)C3)c2)C2=C(CC(C)(C)CC2=O)Nc2n[nH]cc21 [Compound 924520] | > 5 µM | > 5 µM | – | – | – |
| CC[C@@H]1C[C@@]2(CCO1)C1=C(CC(C)(C)CC1=O)Nc1n[nH]cc12 [Compound 924715] | – | – | ≤ 0.1 µM | 0.1 to 1 µM | – |
| CCC1(c2cccc(N(C)c3nc(C)cc(C)n3)c2)C2=C(CC(C)(C)CC2=O)Nc2n[nH]cc21 (stereo not drawn) [Compound 926304] | 0.1 to 1 µM | 1 to 5 µM | – | – | – |
| CC1(C)CC(=O)C2=C(C1)Nc1n[nH]cc1C21COC2(CN(S(C)(=O)=O)C2)C1 (stereo not drawn) [Compound 926808] | – | – | – | – | IC50 [1, 7]: ≤ 0.1 µM; IC50 [2, 8]: ≤ 0.1 µM |
| C[C@H]1C[C@@]2(CCN1S(=O)(=O)c1ccn(C)n1)C1=C(CC(C)(C)CC1=O)Nc1n[nH]cc12 [Compound 926815] | – | – | ≤ 0.1 µM | ≤ 0.1 µM | – |
